PMC7762828 (Journal of medicinal chemistry, 2020)

Tests used:
leukemia cell lines = assay: CellTiter-Glo cell viability assay, panel of seven leukemia cell lines; assay type: cell-based; conditions: 72 h, read-out: cell viability IC50
T-ALL cell line (HSB-2) = assay: Combinatorial high throughput drug screen; assay type: cell-based
Human recombinant HDAC4 = Human recombinant HDAC4 (Homo sapiens, UniProt P56524); assay: HDAC4 inhibition assay; assay type: biochemical; conditions: selectivity for HDAC6 over HDAC4
Human recombinant HDAC4, sequence (P56524 whole entry): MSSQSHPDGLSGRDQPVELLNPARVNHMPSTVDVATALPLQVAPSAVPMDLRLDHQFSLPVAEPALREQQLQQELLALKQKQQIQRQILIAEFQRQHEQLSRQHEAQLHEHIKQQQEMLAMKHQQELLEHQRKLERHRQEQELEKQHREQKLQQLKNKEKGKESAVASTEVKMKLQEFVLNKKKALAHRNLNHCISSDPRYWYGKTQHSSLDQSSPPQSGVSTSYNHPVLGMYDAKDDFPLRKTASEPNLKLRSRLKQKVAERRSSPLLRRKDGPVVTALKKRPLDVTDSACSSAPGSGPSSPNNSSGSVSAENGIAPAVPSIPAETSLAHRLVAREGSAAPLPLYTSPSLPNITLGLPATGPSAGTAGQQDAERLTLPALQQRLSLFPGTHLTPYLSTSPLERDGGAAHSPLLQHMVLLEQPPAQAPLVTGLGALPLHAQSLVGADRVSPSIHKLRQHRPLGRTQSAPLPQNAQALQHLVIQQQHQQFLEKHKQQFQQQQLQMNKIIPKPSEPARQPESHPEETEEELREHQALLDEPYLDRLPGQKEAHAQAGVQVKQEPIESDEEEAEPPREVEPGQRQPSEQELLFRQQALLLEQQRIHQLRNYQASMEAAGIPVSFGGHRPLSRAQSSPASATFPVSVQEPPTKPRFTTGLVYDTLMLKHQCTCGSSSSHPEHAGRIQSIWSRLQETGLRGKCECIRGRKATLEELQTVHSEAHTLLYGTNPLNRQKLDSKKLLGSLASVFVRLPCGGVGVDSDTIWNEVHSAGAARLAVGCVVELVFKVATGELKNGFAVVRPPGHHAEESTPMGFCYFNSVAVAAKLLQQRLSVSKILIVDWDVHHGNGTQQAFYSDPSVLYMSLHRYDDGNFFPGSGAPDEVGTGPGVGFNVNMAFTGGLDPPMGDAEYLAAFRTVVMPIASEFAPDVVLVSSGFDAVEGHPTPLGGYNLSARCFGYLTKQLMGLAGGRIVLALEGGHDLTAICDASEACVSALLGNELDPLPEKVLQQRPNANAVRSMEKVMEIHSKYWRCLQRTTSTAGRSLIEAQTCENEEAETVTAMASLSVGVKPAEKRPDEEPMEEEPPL

HL60 cells [1] = assay: Western blot of protein acetylation in HL60 cells; assay type: cell-based; conditions: HL60, 24 h, two concentrations, immunoblot
HL60 cells [2] = assay: Annexin V-propidium iodide apoptosis assay; assay type: cell-based; conditions: HL60, 24 h

## O=C(NO)c1ccc(CN(Cc2nnnn2Cc2ccccc2)C(=O)c2ccccc2C(F)(F)F)cc1 [6l]
Leukemia cell lines
  IC50: > 20 µM
T-ALL cell line (HSB-2); HSB-2, 6l […] and 5 μM with epirubicin (Epi) and daunorubicin (Dauno)
  cytotoxic activity in combination with anthracyclines: significant enhancement of cytotoxic activity
T-ALL cell line (HSB-2); HSB-2, 6l alone
  cytotoxicity as single agent: unable to affect the cytotoxicity
Human recombinant HDAC4
  SI (HDAC4 vs HDAC6): 1857
HL60 cells [1]
  acetylation status of histone H3 (ac-H3), marker for class I HDAC inhibition: unaffected
  α-tubulin acetylation (ac-α-tubulin), marker for HDAC6 inhibition: induced α-tubulin acetylation
HL60 cells [2]; 6l alone at 2.5 or 5 μM
  cytotoxic effect as single agent (number of viable cells): no cytotoxic effect
HL60 cells [2]; combination with bortezomib (BTZ) versus BTZ alone
  apoptosis induction in combination with BTZ (late apoptotic/dead cells): augmented the apoptosis induction of BTZ
